From patent US20140058103A1, “Inhibitors of PI3K-Delta and Methods of Their Use and Manufacture” (Exelixis, Inc., priority 2010, published 2014)

Each compound was assayed against PI3K delta (Homo sapiens, UniProt O00329) (assay: Luciferase-coupled chemiluminescence kinase assay (ATP consumption, KinaseGlo)).
Format: biochemical
Description: Kinase activity and compound inhibition were investigated using one or more of the assay formats described below. The ATP concentrations used in the various assays were approximately equal to or less than the KM for each of the respective kinases. Dose-response experiments were performed using an intra-plate dilution scheme with 10 different inhibitor concentrations in a 384-well microtiter plate. IC50 values were calculated by nonlinear regression analysis using the four-parameter equation listed below:
Y=min+(max−min)/(1+(X/IC50)^N) Equation 1
Typically N should approximate unity. Curve fitting was performed using XLFit or ActivityBase.
Kinase activity is measured as the percent of ATP consumed following the kinase reaction using luciferase-luciferin-coupled chemiluminescence. […] Kinase reactions were initiated by combining test compounds, kinase, and ATP in a 20 μL volume (6 μL volume for 1536-well plate). The reaction mixture was incubated at ambient temperature for 2 h. Following the kinase reaction, a 20 μL (or […] for 1536-well plate) aliquot of KinaseGlo (Promega) was added and the chemiluminescence signal measured using an EnVision plate reader (Perkin Elmer).

Chain of PI3K delta (O00329 whole entry): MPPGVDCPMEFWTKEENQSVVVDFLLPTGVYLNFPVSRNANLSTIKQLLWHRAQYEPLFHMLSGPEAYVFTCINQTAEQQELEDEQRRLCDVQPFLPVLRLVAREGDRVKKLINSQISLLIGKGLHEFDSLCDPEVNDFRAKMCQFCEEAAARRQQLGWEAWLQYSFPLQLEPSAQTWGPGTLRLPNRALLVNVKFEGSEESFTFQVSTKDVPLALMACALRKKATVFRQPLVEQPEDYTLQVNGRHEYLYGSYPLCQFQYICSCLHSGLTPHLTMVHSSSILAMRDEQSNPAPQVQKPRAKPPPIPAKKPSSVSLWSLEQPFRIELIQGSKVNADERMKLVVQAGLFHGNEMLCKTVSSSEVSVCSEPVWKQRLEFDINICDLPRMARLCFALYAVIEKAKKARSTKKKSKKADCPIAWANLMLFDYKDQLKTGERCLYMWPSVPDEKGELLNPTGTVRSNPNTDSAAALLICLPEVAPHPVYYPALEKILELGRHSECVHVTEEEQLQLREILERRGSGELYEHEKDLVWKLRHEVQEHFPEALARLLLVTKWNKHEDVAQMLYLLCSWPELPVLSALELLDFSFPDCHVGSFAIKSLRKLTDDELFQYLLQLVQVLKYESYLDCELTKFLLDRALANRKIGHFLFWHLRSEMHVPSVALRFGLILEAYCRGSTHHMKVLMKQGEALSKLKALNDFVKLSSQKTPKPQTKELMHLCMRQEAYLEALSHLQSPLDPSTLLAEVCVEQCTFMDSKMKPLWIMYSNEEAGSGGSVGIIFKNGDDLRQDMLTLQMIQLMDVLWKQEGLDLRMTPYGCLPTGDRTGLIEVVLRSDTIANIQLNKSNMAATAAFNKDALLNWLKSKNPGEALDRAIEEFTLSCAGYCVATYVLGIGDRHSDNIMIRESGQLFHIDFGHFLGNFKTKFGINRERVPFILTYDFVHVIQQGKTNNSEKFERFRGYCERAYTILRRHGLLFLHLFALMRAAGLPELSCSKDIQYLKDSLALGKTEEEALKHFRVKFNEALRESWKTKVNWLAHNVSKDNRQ
Chain of PI3K delta (P27986 whole entry partner): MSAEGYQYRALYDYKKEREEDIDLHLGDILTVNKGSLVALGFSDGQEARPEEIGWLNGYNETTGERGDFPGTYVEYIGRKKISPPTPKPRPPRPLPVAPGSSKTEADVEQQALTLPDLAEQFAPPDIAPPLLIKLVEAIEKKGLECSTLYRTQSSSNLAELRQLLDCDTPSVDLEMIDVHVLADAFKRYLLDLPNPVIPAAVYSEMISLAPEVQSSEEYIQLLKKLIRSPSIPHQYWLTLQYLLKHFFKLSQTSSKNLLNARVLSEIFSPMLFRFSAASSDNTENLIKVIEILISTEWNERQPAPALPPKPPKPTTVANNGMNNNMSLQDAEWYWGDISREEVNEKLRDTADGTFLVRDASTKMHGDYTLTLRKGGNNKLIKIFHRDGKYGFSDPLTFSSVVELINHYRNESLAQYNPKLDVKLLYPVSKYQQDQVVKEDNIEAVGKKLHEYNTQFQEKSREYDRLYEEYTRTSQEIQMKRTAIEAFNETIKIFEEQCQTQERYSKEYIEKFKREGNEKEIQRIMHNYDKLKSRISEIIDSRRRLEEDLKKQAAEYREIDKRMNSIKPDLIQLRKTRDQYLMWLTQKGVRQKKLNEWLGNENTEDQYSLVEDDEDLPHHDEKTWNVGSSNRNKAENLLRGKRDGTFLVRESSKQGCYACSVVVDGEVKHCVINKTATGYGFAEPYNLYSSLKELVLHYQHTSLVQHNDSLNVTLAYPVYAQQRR

IC50	SMILES
50 to 250 nM	Cn1c(C(=O)NCC2CC2)nc2c(N3CCC4(CC3)C(=O)Nc3ccccc34)ncnc21 [Compound 6, N-(Cyclopropylmethyl)-9-methyl-6-(2-oxo-1,2-dihydro-1′H-spiro[indole-3,4′-piperidin]-1′-yl)-9H-purine-8-carboxamide]
50 to 250 nM	Cn1c(C(=O)NCCCCO)nc2c(N3CCC4(CC3)C(=O)Nc3ccccc34)ncnc21 [Compound 13, N-(4-hydroxybutyl)-9-methyl-6-(2-oxo-1,2-dihydro-1′H-spiro[indole-3,4′-piperidin]-1′-yl)-9H-purine-8-carboxamide]
50 to 250 nM	Cn1c(C(=O)NC2CC2)nc2c(N3CCC4(CC3)C(=O)Nc3ccccc34)ncnc21 [Compound 14, N-cyclopropyl-9-methyl-6-(2-oxo-1,2-dihydro-1′H-spiro[indole-3,4′-piperidin]-1′-yl)-9H-purine-8-carboxamide]
50 to 250 nM	Cn1c(C(=O)NC2CCC2)nc2c(N3CCC4(CC3)C(=O)Nc3ccccc34)ncnc21 [Compound 15, N-cyclobutyl-9-methyl-6-(2-oxo-1,2-dihydro-1′H-spiro[indole-3,4′-piperidin]-1′-yl)-9H-purine-8-carboxamide]
50 to 250 nM	CCCCNC(=O)c1nc2c(N3CCC4(CC3)C(=O)Nc3ccccc34)ncnc2n1C [Compound 16, N-butyl-9-methyl-6-(2-oxo-1,2-dihydro-1′H-spiro[indole-3,4′-piperidin]-1′-yl)-9H-purine-8-carboxamide]
50 to 250 nM	Cn1c(C(=O)NCc2ccco2)nc2c(N3CCC4(CC3)C(=O)Nc3ccccc34)ncnc21 [Compound 17, N-(furan-2-ylmethyl)-9-methyl-6-(2-oxo-1,2-dihydro-1′H-spiro[indole-3,4′-piperidin]-1′-yl)-9H-purine-8-carboxamide]
50 to 250 nM	Cn1c(C(=O)NCCCO)nc2c(N3CCC4(CC3)C(=O)Nc3ccccc34)ncnc21 [Compound 19, N-(3-hydroxypropyl)-9-methyl-6-(2-oxo-1,2-dihydro-1′H-spiro[indole-3,4′-piperidin]-1′-yl)-9H-purine-8-carboxamide]
50 to 250 nM	Cn1c(C(=O)NCc2cccs2)nc2c(N3CCC4(CC3)C(=O)Nc3ccccc34)ncnc21 [Compound 20, 9-methyl-6-(2-oxo-1,2-dihydro-1′H-spiro[indole-3,4′-piperidin]-1′-yl)-N-(2-thienylmethyl)-9H-purine-8-carboxamide]
500 to 1500 nM	Cn1c(C(=O)NCCc2ccccn2)nc2c(N3CCC4(CC3)C(=O)Nc3ccccc34)ncnc21 [Compound 21, 9-methyl-6-(2-oxo-1,2-dihydro-1′H-spiro[indole-3,4′-piperidin]-1′-yl)-N-(2-pyridin-2-ylethyl)-9H-purine-8-carboxamide]
50 to 250 nM	Cn1c(C(=O)NCc2ccncc2)nc2c(N3CCC4(CC3)C(=O)Nc3ccccc34)ncnc21 [Compound 22, 9-methyl-6-(2-oxo-1,2-dihydro-1′H-spiro[indole-3,4′-piperidin]-1′-yl)-N-(pyridin-4-ylmethyl)-9H-purine-8-carboxamide]
50 to 250 nM	CC(C)NC(=O)c1nc2c(N3CCC4(CC3)C(=O)Nc3ccccc34)ncnc2n1C [Compound 24, 9-methyl-N-(1-methylethyl)-6-(2-oxo-1,2-dihydro-1′H-spiro[indole-3,4′-piperidin]-1′-yl)-9H-purine-8-carboxamide]
250 to 500 nM	Cn1c(C(=O)NCCO)nc2c(N3CCC4(CC3)C(=O)Nc3ccccc34)ncnc21 [Compound 25, N-(2-hydroxyethyl)-9-methyl-6-(2-oxo-1,2-dihydro-1′H-spiro[indole-3,4′-piperidin]-1′-yl)-9H-purine-8-carboxamide]
500 to 1500 nM	COc1ccccc1CNC(=O)c1nc2c(N3CCC4(CC3)C(=O)Nc3ccccc34)ncnc2n1C [Compound 26, 9-methyl-N-([2-(methyloxy)phenyl]methyl)-6-(2-oxo-1,2-dihydro-1′H-spiro[indole-3,4′-piperidin]-1′-yl)-9H-purine-8-carboxamide]
500 to 1500 nM	Cc1ccccc1CNC(=O)c1nc2c(N3CCC4(CC3)C(=O)Nc3ccccc34)ncnc2n1C [Compound 27, 9-methyl-N-[(2-methylphenyl)methyl]-6-(2-oxo-1,2-dihydro-1′H-spiro[indole-3,4′-piperidin]-1′-yl)-9H-purine-8-carboxamide]
250 to 500 nM	Cn1c(C(=O)NCc2cccc(F)c2)nc2c(N3CCC4(CC3)C(=O)Nc3ccccc34)ncnc21 [Compound 28, N-[(3-fluorophenyl)methyl]-9-methyl-6-(2-oxo-1,2-dihydro-1′H-spiro[indole-3,4′-piperidin]-1′-yl)-9H-purine-8-carboxamide]
500 to 1500 nM	COc1ccc(CNC(=O)c2nc3c(N4CCC5(CC4)C(=O)Nc4ccccc45)ncnc3n2C)cc1 [Compound 29, 9-methyl-N-([4-(methyloxy)phenyl]methyl)-6-(2-oxo-1,2-dihydro-1′H-spiro[indole-3,4′-piperidin]-1′-yl)-9H-purine-8-carboxamide]
< 50 nM	Cn1c(C(=O)NCC(F)(F)F)nc2c(N3CCC4(CC3)C(=O)Nc3ccccc34)ncnc21 [Compound 30, 9-methyl-6-(2-oxo-1,2-dihydro-1′H-spiro[indole-3,4′-piperidin]-1′-yl)-N-(2,2,2-trifluoroethyl)-9H-purine-8-carboxamide]
500 to 1500 nM	CC(CNC(=O)c1nc2c(N3CCC4(CC3)C(=O)Nc3ccccc34)ncnc2n1C)c1ccccc1 (centres unmarked) [Compound 31, 9-methyl-6-(2-oxo-1,2-dihydro-1′H-spiro[indole-3,4′-piperidin]-1′-yl)-N-(2-phenylpropyl)-9H-purine-8-carboxamide]
50 to 250 nM	CCNC(=O)c1nc2c(N3CCC4(CC3)C(=O)Nc3ccccc34)ncnc2n1C [Compound 32, N-ethyl-9-methyl-6-(2-oxo-1,2-dihydro-1H-spiro[indole-3,4′-piperidin]-1′-yl)-9H-purine-8-carboxamide]

The remaining lines, values behind:

SMILES	IC50
Cn1cc(-c2nc3c(N4CCC(CN)(c5ccccc5)CC4)ncnc3n2C)cn1 [Compound 1, 1-{1-[9-methyl-8-(1-methyl-1H-pyrazol-4-yl)-9H-purin-6-yl]-4-phenylpiperidin-4-yl}methanamine]	500 to 1500 nM
Cc1nc(-c2ccccc2)n(OCC2CCN(c3ncnc4c3nc(-c3cnn(C)c3)n4C)CC2)c1C [Compound 2, 6-(4-(((4,5-Dimethyl-2-phenyl-1H-imidazol-1-yl)oxy)methyl)piperidin-1-yl)-9-methyl-8-(1-methyl-M-pyrazol-4-yl)-9H-purine]	500 to 1500 nM
Cn1c(C(=O)NCC2CC2)nc2c(N3CCC(O)(c4ccccc4)CC3)ncnc21 [Compound 3, N-(cyclopropylmethyl)-6-(4-hydroxy-4-phenylpiperidin-1-yl)-9-methyl-9H-purine-8-carboxamide]	50 to 250 nM
Cn1c(C(=O)NCC2CCOCC2)nc2c(N3CCC(n4c(=O)[nH]c5ccccc54)CC3)ncnc21 [Compound 5, 9-methyl-6-[4-(2-oxo-2,3-dihydro-1H-benzimidazol-1-yl)piperidin-1-yl]-N-(tetrahydro-2H-pyran-4-ylmethyl)-9H-purine-8-carboxamide]	< 50 nM
CN(C)C(=O)c1nc2c(N3CCC4(CC3)C(=O)NCN4c3ccccc3)ncnc2n1C [Compound 7, N,N,9-Trimethyl-6-(4-oxo-1-phenyl-1,3,8-triazaspiro[4.5]dec-8-yl)-9H-purine-8-carboxamide]	500 to 1500 nM
Cn1c(C(=O)N2CCCC2)nc2c(N3CCC4(CC3)C(=O)NCN4c3ccccc3)ncnc21 [Compound 8, 8-[9-methyl-8-(pyrrolidin-1-ylcarbonyl)-9H-purin-6-yl]-1-phenyl-1,3,8-triazaspiro[4.5]decan-4-one]	250 to 500 nM
Cn1c(C(=O)N2CCCCC2)nc2c(N3CCC4(CC3)C(=O)NCN4c3ccccc3)ncnc21 [Compound 9, 8-[9-methyl-8-(piperidin-1-ylcarbonyl)-9H-purin-6-yl]-1-phenyl-1,3,8-triazaspiro[4.5]decan-4-one]	50 to 250 nM
CN(C)C1CN(C(=O)c2nc3c(N4CCC5(CC4)C(=O)NCC5c4ccccc4)ncnc3n2C)C1 (centres unmarked) [Compound 10]	500 to 1500 nM
Cn1c(C(=O)NCC2CCCOC2)nc2c(N3CCC(n4c(=O)[nH]c5ccccc54)CC3)ncnc21 (centres unmarked) [Compound 11, 9-methyl-6-[4-(2-oxo-2,3-dihydro-1H-benzimidazol-1-yl)piperidin-1-yl]-N-(tetrahydro-2H-pyran-3-ylmethyl)-9H-purine-8-carboxamide]	250 to 500 nM
Cn1c(C(=O)NCC2(O)CC2)nc2c(N3CCC(n4c(=O)[nH]c5ccccc54)CC3)ncnc21 [Compound 12, N-[(1-hydroxycyclopropyl)methyl]-9-methyl-6-[4-(2-oxo-2,3-dihydro-1H-benzimidazol-1-yl)piperidin-1-yl]-9H-purine-8-carboxamide]	50 to 250 nM
Cn1c(C(=O)NC2CCc3ccccc32)nc2c(N3CCC4(CC3)C(=O)Nc3ccccc34)ncnc21 (centres unmarked) [Compound 18, N-(2,3-dihydro-1H-inden-1-yl)-9-methyl-6-(2-oxo-1,2-dihydro-1′H-spiro[indole-3,4′-piperidin]-1′-yl)-9H-purine-8-carboxamide]	250 to 500 nM
CC(NC(=O)c1nc2c(N3CCC4(CC3)C(=O)Nc3ccccc34)ncnc2n1C)c1ccccc1 (centres unmarked) [Compound 23, 9-methyl-6-(2-oxo-1,2-dihydro-1′H-spiro[indole-3,4′-piperidin]-1′-yl)-N-(1-phenylethyl)-9H-purine-8-carboxamide]	500 to 1500 nM
Cn1c(C(=O)NCc2ccc(F)cc2F)nc2c(N3CCC4(CC3)C(=O)Nc3ccccc34)ncnc21 [Compound 33, N-[(2,4-difluorophenyl)methyl]-9-methyl-6-(2-oxo-1,2-dihydro-1′H-spiro[indole-3,4′-piperidin]-1′-yl)-9H-purine-8-carboxamide]	500 to 1500 nM
